According to patent US5783597A, “2,5-disubstituted thiophenes: inhibitors of 5-lipoxygenase and inducible cyclooxygenase (COX-2) enzymes, composition and use” (Ortho Pharmaceutical Corporation, priority 1997, dated 1998):

What was measured:
[1] = target: T1, Human Prostaglandin H2 Synthase Typ II (Cox-2) (Homo sapiens, UniProt P35354); experiment: Human Prostaglandin H2 Synthase Typ II (Cox-2) Whole Cell Assay, ECV-304 cells (Procedure III); type: cell-based; conditions: ECV-304 whole cells; for IC50: PGE2 produced, read-out: Procedure III (COX-2) Wh Cell IC50; for inhibition at 10 µM: read-out: Procedure III (COX-2) Wh Cell, percent inhibition of PGE2 produced
T1 construct: endogenous in cells; host or cells: ECV-304 cells treated with PMA and ionomycin for 16 hours
T1 sequence (P35354 18-604): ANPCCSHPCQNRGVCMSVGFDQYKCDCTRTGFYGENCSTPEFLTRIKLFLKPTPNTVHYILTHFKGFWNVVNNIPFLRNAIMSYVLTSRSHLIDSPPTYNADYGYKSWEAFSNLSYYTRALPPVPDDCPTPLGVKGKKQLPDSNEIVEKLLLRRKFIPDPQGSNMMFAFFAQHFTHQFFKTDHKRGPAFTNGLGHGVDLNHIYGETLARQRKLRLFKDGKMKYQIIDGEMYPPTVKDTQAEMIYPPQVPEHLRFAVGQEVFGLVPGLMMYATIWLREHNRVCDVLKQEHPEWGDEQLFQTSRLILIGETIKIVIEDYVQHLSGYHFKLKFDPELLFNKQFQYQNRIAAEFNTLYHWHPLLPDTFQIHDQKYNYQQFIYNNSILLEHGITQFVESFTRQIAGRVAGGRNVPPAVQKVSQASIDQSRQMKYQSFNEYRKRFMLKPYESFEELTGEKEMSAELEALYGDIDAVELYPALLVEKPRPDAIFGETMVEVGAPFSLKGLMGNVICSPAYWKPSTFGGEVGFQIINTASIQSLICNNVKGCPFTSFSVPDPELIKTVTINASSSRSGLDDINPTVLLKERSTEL
Description: Human Prostaglandin H2 Synthase Typ II (Cox-2) Whole Cell Assay (Multiple Concentrations)
ECV-304 (human, endothelial, umbilical cord) cells are maintained in culture in a suitable medium, and are trypsinized and plated at a density of 1×10^6 cells per well of a 6 well plate prior to assay. Approximately 28 hours later, 50 μg/ml PMA and […] ionomycin (both final concentrations) are added to each well and incubated for an additional 16 hours. Vehicle or test compounds are incubated with the cells for five minutes prior to initiation of Cox-2 enzyme activity by the addition of 30 μM arachidonic acid. Ten minutes later, an aliquot of the supernatant is withdrawn and the amount of PGE2 present quantitated by radioimmunoassay. Activity, reported as percent inhibition of PGE2 produced, is calculated as follows: […]

5-lipoxygenase (5-LO) [2] = target: T2, 5-lipoxygenase (5-LO) (Rattus norvegicus, UniProt P12527); experiment: RBL-1 cell 5-lipoxygenase and cyclooxygenase - Homogenate (Procedure I); type: biochemical
T2 construct: endogenous in cells; host or cells: intact RBL-1 (rat basophilic leukemia) cells, stimulated with calcium ionophore A23187
T2 sequence (P12527 1-673): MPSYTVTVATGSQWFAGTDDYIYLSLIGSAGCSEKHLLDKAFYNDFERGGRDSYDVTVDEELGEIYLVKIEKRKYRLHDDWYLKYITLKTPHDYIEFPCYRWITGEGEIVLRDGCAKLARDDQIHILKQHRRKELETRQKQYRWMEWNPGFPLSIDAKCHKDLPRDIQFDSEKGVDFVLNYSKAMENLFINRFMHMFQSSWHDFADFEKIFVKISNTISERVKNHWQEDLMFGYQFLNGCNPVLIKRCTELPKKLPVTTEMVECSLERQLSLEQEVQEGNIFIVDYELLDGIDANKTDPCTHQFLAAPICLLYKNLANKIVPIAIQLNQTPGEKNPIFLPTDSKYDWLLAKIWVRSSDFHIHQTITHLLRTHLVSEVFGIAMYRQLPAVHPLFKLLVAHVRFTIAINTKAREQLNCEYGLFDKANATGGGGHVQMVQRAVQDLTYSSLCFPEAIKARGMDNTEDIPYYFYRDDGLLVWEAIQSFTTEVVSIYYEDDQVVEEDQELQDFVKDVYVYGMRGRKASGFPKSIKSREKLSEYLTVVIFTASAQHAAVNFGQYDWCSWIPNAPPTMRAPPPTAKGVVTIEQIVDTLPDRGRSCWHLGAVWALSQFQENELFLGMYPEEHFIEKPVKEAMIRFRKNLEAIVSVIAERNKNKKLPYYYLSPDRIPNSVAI
Description: RBL-1 cell 5-lipoxygenase and cyclooxugenase - Homogenate
Rat basophilic leukemia cells (RBL-1; 5×10^7 viable cells/mL) were disrupted by homogenization on ice (four 20 sec bursts) with a Brinkman polytron. […] The homogenate was then centrifuged at 9,220×g for 48 minutes at 4° C. The pellet was discarded and the supernatant was saved as the source of enzymes. The supernatant was pre-incubated for five minutes at 37° C. in the presence of 2 mM of CaCl2 and compound or vehicle (1% DMSO). The conversion of AA into products by CO and LO was initiated by adding 10 μL (50 μCi) of 1-^14 C-AA to each tube and incubated at 37° C. for 20 minutes. The reaction was stopped by adjusting the pH of each sample to 3 to 3.5 with 2M formic acid. Samples were extracted with three volumes of chloroform to isolate the products of 5-LO formed during the reaction. Fractions were dried under nitrogen, then resuspended in 40 μL of chloroform and spotted onto silica gel HL plates. The plates were developed in A-9 solvent. The dried plates were analyzed using a Bioscan Imaging TLC scanner to determine the percentage of radiolabelled M converted to 5-HETE (LO product) and PGD2 (CO product) in each sample.

5-lipoxygenase (5-LO) [3] = target: T2, 5-lipoxygenase (5-LO); experiment: RBL-1 cell 5-lipoxygenase and cyclooxygenase - Whole cells (Procedure II); type: cell-based
Description: RBL-1 Cell 5-Lipoxygenase and cyclooxygenase - Whole cells
The ability to inhibit 5-LO and CO in intact RBL-1 cells was also evaluated. […] Cells were collected by centrifugation, washed once in HBSS, and resuspended at a concentration of 1×10^5 cells/mL. Cells were incubated in the presence of vehicle or drug then centrifuged at 800×g for 10 minutes at 4° C. The supernatant was removed by aspiration and the cells were resuspended in 0.5 mL of HBSS. […] The conversion of M to 5-LO products was initiated by the addition of 10 μL (50 uCi) of 1-^14 C-AA. Products were isolated by acidification and extraction, followed by thin layer chromatography analysis as described above. Radioactive areas corresponding to authentic 5-LO (5-HETE) and CO (PGD2) products were quantitated by the Bioscan 2000 Imaging System.

[4] = RBL-1 homogenate supernatant, 5-HETE, read-out: Procedure I (5-LO) Homog. IC50
[5] = intact RBL-1 cells, 5-HETE, read-out: Procedure II (5-LO) Wh Cell IC50

Row | Structure (SMILES) | IC50 [1] | IC50 (5-lipoxygenase (5-LO) [2]; [4]) | IC50 (5-lipoxygenase (5-LO) [3]; [5]) | inhibition at 10 µM [1] | IC50 (5-lipoxygenase (5-LO) [2]) | IC50 (5-lipoxygenase (5-LO) [3])
1 | Cc1cc(F)ccc1Oc1ccc(NS(C)(=O)=O)s1 [Example 16] | 1900 nM | 90 nM | 1090 nM |  |  | 
2 | CS(=O)(=O)Nc1ccc(Oc2cccc3c2CCCC3)s1 [Example 23] | 10000 nM |  |  |  |  | 
3 | CS(=O)(=O)Nc1ccc(Oc2ccc(F)c(Cl)c2)s1 [Example 6] | 5300 nM | 30 nM | 890 nM |  |  | 
4 | CS(=O)(=O)Nc1ccc(Oc2cccc(F)c2)s1 [Example 3] |  | 160 nM | 490 nM | 13% |  | 
5 | COc1ccc(Oc2ccc(NS(C)(=O)=O)s2)cc1 [Example 7] |  | 20 nM | 1450 nM | 0% |  | 
6 | Cc1cc(Oc2ccc(NS(C)(=O)=O)s2)ccc1F [Example 11] | 1180 nM | 20 nM | 310 nM |  |  | 
7 | CS(=O)(=O)Nc1ccc(-c2ccc(F)cc2)s1 [Example 32, N-5-[(4-fluoro)phenyl-thien-2-yl]methanesulfonamide] |  | 150 nM | 2100 nM | 3% |  | 
8 | CS(=O)(=O)Nc1ccc(Oc2cccc(C(F)(F)F)c2)s1 [Example 10] | 1020 nM | 60 nM | 780 nM |  |  | 
9 | CS(=O)(=O)Nc1ccc(Cc2ccccc2)s1 [Example 31, N-(5-Benzylthien-2-yl)methanesulfonamide] |  | 110 nM | 380 nM | 45% |  | 
10 | CS(=O)(=O)Nc1ccc(-c2ccccc2)s1 [Example 33, N-5-[phenyl-thien-2-yl]methanesulfonamide] |  | 110 nM | 790 nM | 31% |  | 
11 | CS(=O)(=O)Nc1ccc(Oc2cc(C(F)(F)F)ccc2Cl)s1 [Example 19] |  |  |  | 29% | 140 nM | 1800 nM
12 | Cc1cccc(Oc2ccc(NS(C)(=O)=O)s2)c1C [Example 9] |  | 60 nM | 660 nM | 54% |  | 
13 | CS(=O)(=O)Nc1ccc(Oc2cccc3ccccc23)s1 [Example 21] | 3000 nM | 70 nM | 800 nM |  |  | 
14 | CSc1ccc(Oc2ccc(NS(C)(=O)=O)s2)cc1 [Example 4] |  | 100 nM | 660 nM | 39% |  | 
15 | CS(=O)(=O)Nc1ccc(Oc2cc(C(F)(F)F)cc(C(F)(F)F)c2)s1 [Example 18] |  | 310 nM | 6500 nM | 8% |  | 
16 | CS(=O)(=O)Nc1ccc(SC2CCCCC2)s1 [Example 29] | 9100 nM | 70 nM | 2390 nM |  |  | 
17 | CS(=O)(=O)Nc1ccc(Sc2ccccc2)s1 [Example 28] |  | 190 nM | 700 nM | 33% |  | 
18 | CS(=O)(=O)Nc1ccc(Oc2ccc3ccccc3c2)s1 [Example 22] | 10000 nM | 60 nM | 770 nM |  |  | 
19 | O=S(=O)(Nc1ccc(Oc2ccccc2)s1)c1ccccc1 [Example 27] |  | 100 nM | 900 nM | 44% |  | 
20 | CS(=O)(=O)Nc1ccc(Oc2ccc(Cl)cc2Cl)s1 [Example 13] | 5800 nM | 90 nM | 650 nM |  |  | 
21 | CS(=O)(=O)Nc1ccc(Oc2ccccc2)s1 [Example 2] | 4220 nM | 70 nM | 470 nM |  |  | 

Continued by falling IC50 (5-lipoxygenase (5-LO) [2]; [4]), values first:

Row | IC50 [1] | IC50 (5-lipoxygenase (5-LO) [2]; [4]) | IC50 (5-lipoxygenase (5-LO) [3]; [5]) | inhibition at 10 µM [1] | Structure (SMILES) | IC50 (5-lipoxygenase (5-LO) [2]) | IC50 (5-lipoxygenase (5-LO) [3])
22 |  | 1800 nM | 38500 nM | 0% | CS(=O)(=O)Nc1ccc(Oc2ccc(S(C)(=O)=O)cc2)s1 [Example 5] |  | 
23 |  | 610 nM | 4700 nM | 36% | CC(C)c1cccc(Oc2ccc(NS(C)(=O)=O)s2)c1 [Example 20] |  | 
24 | 10000 nM | 360 nM | 1120 nM |  | CCCCS(=O)(=O)Nc1ccc(Oc2ccccc2)s1 [Example 24] |  | 
25 |  | 300 nM | 2900 nM | 8% | CCCCCCCCS(=O)(=O)Nc1ccc(Oc2ccccc2)s1 [Example 26] |  | 
26 | 1970 nM | 150 nM | 730 nM |  | CS(=O)(=O)Nc1ccc(Oc2ccc(F)cc2F)s1 [Example 14] |  | 
27 | 1690 nM | 120 nM | 310 nM |  | Cc1cccc(Oc2ccc(NS(C)(=O)=O)s2)c1 [Example 15] |  | 
28 | 18000 nM | 75 nM | 660 nM |  | CS(=O)(=O)Nc1ccc(Oc2ccc(Cl)cc2)s1 [Example 12] |  | 
29 | 5290 nM | 60 nM | 1400 nM |  | CS(=O)(=O)Nc1ccc(Oc2ccc(F)cc2Br)s1 [Example 17] |  | 
30 | 10300 nM | 60 nM | 500 nM |  | CS(=O)(=O)Nc1ccc(Oc2cccc(Cl)c2)s1 [Example 8] |  | 
31 |  | 50 nM | 1040 nM | 16% | CC(C)S(=O)(=O)Nc1ccc(Oc2ccccc2)s1 [Example 25] |  | 
32 | 2760 nM | 40 nM | 630 nM |  | CCCCCSc1ccc(NS(C)(=O)=O)s1 [Example 30] |  | 
